Results from US20070015834A1 (priority 2005, published 2007).

Assay: Small volume in vitro release test in 50 ml 0.1N HCl (model of fasted stomach)
Type: physicochemical
Conditions: 37° C., 150 rpm
Procedure: The formulations were tested for their small volume in vitro release characteristics in 50 ml 0.1N HCl at 37° C. and 150 rpm using the following procedure: III. Instrumentation (or Equivalent) a. Automated Dissolution System comprising of: Hanson SR8 Plus Test Station Hanson Auto Plus Maximiser System Controller Hanson Auto Plus MultiFill Fraction Collector b. HPLC System comprising of: pump—Merck Hitachi L-7100 autoinjector—Merck Hitachi L-7200 column oven—Merck Hitachi L-7300 detector—Merck Hitachi L-7400 interface and integration software—Merck Hitachi D-7000
0.1N HCl Preparation Dilute 8.5 ml HCl 37% to 1 liter with purified water. Procedure Place one weighed capsule in each vessel containing 0.1N HCl and immediately operate the apparatus for 30 min. Unless otherwise specified, 3 ml samples are withdrawn from each vessel and immediately filtered through PTFE membranes at 15 and 30 min.
The small volume was chosen as a model of the conditions in a fasted stomach.

CC(C)OC(=O)C(C)(C)Oc1ccc(C(=O)c2ccc(Cl)cc2)cc1 [Micronized Fenofibrate]
dissolution in 50 ml 0.1N HCl (in words): no dissolution at all | % dissolved 15 min (15 min): 0% | % dissolved 30 min (30 min): 0%
